From ChEMBL document CHEMBL3045111, “Synthesis and herbicidal activities of novel 3-(substituted benzyloxy or phenoxy)-6-methyl-4-(3-trifluoromethylphenyl)pyridazine derivatives” (2012)
Active and inactive are the calls of the source. The rule behind the calls is not given here.

What was measured:
[1] = test system: Brassica rapa subsp. oleifera; assay: Post-emergence herbicidal activity against one-leaf stage Brassica rapa subsp. oleifera under greenhouse condition assessed as complete bleaching of leaves at 600 g /ha measured after 24 days by spray method; type: functional, organism-based
[2] = test system: Brassica rapa subsp. oleifera; assay: Post-emergence herbicidal activity against one-leaf stage Brassica rapa subsp. oleifera under greenhouse condition at 75 g /ha measured after 24 days by spray method; type: functional; conditions: 576 h, read-out: GI
[3] = test system: Brassica rapa subsp. oleifera; assay: Post-emergence herbicidal activity against one-leaf stage Brassica rapa subsp. oleifera under greenhouse condition at 150 g /ha measured after 24 days by spray method; type: functional; conditions: 576 h, read-out: GI
[4] = test system: Brassica rapa subsp. oleifera; assay: Post-emergence herbicidal activity against one-leaf stage Brassica rapa subsp. oleifera under greenhouse condition at 300 g /ha measured after 24 days by spray method; type: functional; conditions: 576 h, read-out: GI
[5] = test system: Brassica rapa subsp. oleifera; assay: Post-emergence herbicidal activity against one-leaf stage Brassica rapa subsp. oleifera under greenhouse condition at 600 g /ha measured after 24 days by spray method; type: functional; conditions: 576 h, read-out: GI
[6] = test system: Digitaria; assay: Post-emergence herbicidal activity against one-leaf stage of Digitaria adscendens under greenhouse condition at 750 g /ha measured after 24 days by spray method; type: functional; conditions: in Digitaria adscendens, 576 h, read-out: GI
[7] = test system: Echinochloa crus-galli; assay: Post-emergence herbicidal activity against one-leaf stage of Echinochloa crus-galli (barnyard grass) under greenhouse condition at 750 g /ha measured after 24 days by spray method; type: functional; conditions: 576 h, read-out: GI
[8] = test system: Amaranthus retroflexus; assay: Post-emergence herbicidal activity against one-leaf stage of Amaranthus retroflexus under greenhouse condition at 750 g /ha measured after 24 days by spray method; type: functional; conditions: 576 h, read-out: GI
[9] = test system: Brassica rapa subsp. oleifera; assay: Post-emergence herbicidal activity against one-leaf stage Brassica rapa subsp. oleifera under greenhouse condition at 750 g /ha measured after 24 days by spray method; type: functional; conditions: 576 h, read-out: GI
[10] = test system: Digitaria; assay: Pre-emergence herbicidal activity against Digitaria adscendens under greenhouse condition at 750 g /ha measured after 24 days by spray method; type: functional; conditions: in Digitaria adscendens, 576 h, read-out: GI
[11] = test system: Echinochloa crus-galli; assay: Pre-emergence herbicidal activity against Echinochloa crus-galli (barnyard grass) under greenhouse condition at 750 g /ha measured after 24 days by spray method; type: functional; conditions: 576 h, read-out: GI
[12] = test system: Amaranthus retroflexus; assay: Pre-emergence herbicidal activity against Amaranthus retroflexus under greenhouse condition at 750 g /ha measured after 24 days by spray method; type: functional; conditions: 576 h, read-out: GI
[13] = test system: Brassica rapa subsp. oleifera; assay: Pre-emergence herbicidal activity against Brassica rapa subsp. oleifera under greenhouse condition at 750 g /ha measured after 24 days by spray method; type: functional; conditions: 576 h, read-out: GI
[14] = test system: Spirodela polyrhiza; assay: Bleaching herbicidal activity in Spirodela polyrhiza fronds cultured in compound-containing in medium assessed as chlorophyll inhibition at 1 ug/ml after 7 days; type: functional; conditions: 168 h
[15] = test system: Spirodela polyrhiza; assay: Bleaching herbicidal activity in Spirodela polyrhiza fronds cultured in compound-containing in medium assessed as chlorophyll inhibition at 10 ug/ml after 7 days; type: functional; conditions: 168 h
[16] = test system: Amaranthus retroflexus; assay: Post-emergence herbicidal activity against one-leaf stage Amaranthus retroflexus under greenhouse condition assessed as complete bleaching of leaves at 150 g /ha measured after 24 days by spray method; type: functional, organism-based
[17] = test system: Amaranthus retroflexus; assay: Post-emergence herbicidal activity against one-leaf stage Amaranthus retroflexus under greenhouse condition assessed as complete bleaching of leaves at 300 g /ha measured after 24 days by spray method; type: functional, organism-based
[18] = test system: Amaranthus retroflexus; assay: Post-emergence herbicidal activity against one-leaf stage Amaranthus retroflexus under greenhouse condition assessed as complete bleaching of leaves at 600 g /ha measured after 24 days by spray method; type: functional, organism-based
[19] = test system: Brassica rapa subsp. oleifera; assay: Post-emergence herbicidal activity against one-leaf stage Brassica rapa subsp. oleifera under greenhouse condition assessed as complete bleaching of leaves at 75 g /ha measured after 24 days by spray method; type: functional, organism-based
[20] = test system: Brassica rapa subsp. oleifera; assay: Post-emergence herbicidal activity against one-leaf stage Brassica rapa subsp. oleifera under greenhouse condition assessed as complete bleaching of leaves at 150 g /ha measured after 24 days by spray method; type: functional, organism-based
[21] = test system: Brassica rapa subsp. oleifera; assay: Post-emergence herbicidal activity against one-leaf stage Brassica rapa subsp. oleifera under greenhouse condition assessed as complete bleaching of leaves at 300 g /ha measured after 24 days by spray method; type: functional, organism-based
[22] = test system: Amaranthus retroflexus; assay: Post-emergence herbicidal activity against one-leaf stage Amaranthus retroflexus under greenhouse condition at 75 g /ha measured after 24 days by spray method; type: functional; conditions: 576 h, read-out: GI
[23] = test system: Amaranthus retroflexus; assay: Post-emergence herbicidal activity against one-leaf stage Amaranthus retroflexus under greenhouse condition at 150 g /ha measured after 24 days by spray method; type: functional; conditions: 576 h, read-out: GI
[24] = test system: Amaranthus retroflexus; assay: Post-emergence herbicidal activity against one-leaf stage Amaranthus retroflexus under greenhouse condition at 300 g /ha measured after 24 days by spray method; type: functional; conditions: 576 h, read-out: GI
[25] = test system: Amaranthus retroflexus; assay: Post-emergence herbicidal activity against one-leaf stage Amaranthus retroflexus under greenhouse condition at 600 g /ha measured after 24 days by spray method; type: functional; conditions: 576 h, read-out: GI
[26] = test system: Amaranthus retroflexus; assay: Post-emergence herbicidal activity against one-leaf stage Amaranthus retroflexus under greenhouse condition assessed as complete bleaching of leaves at 75 g /ha measured after 24 days by spray method; type: functional, organism-based

SMILES	Activity [1]	inhibition of growth at 75 g/ha [2] [%]	inhibition of growth at 150 g/ha [3] [%]	inhibition of growth at 300 g/ha [4] [%]	inhibition of growth at 600 g/ha [5] [%]	inhibition of growth at 750 g/ha [6] [%]	inhibition of growth at 750 g/ha [7] [%]	inhibition of growth at 750 g/ha [8] [%]	inhibition of growth at 750 g/ha [9] [%]	inhibition of growth at 750 g/ha [10] [%]	inhibition of growth at 750 g/ha [11] [%]	inhibition of growth at 750 g/ha [12] [%]	inhibition of growth at 750 g/ha [13] [%]	inhibition at 1 µg/mL [14] [%]	inhibition at 10 µg/mL [15] [%]	Activity [16]	Activity [17]	Activity [18]	Activity [19]	Activity [20]	also measured
Cc1cc(-c2cccc(C(F)(F)F)c2)c(Oc2cccc(Br)c2)nn1	Active	42	67	76	91	40	40	94	100	33	14	0	0	70	79	Active	Active	Active	Active	Active	Activity [21]: Active; inhibition of growth at 75 g/ha [22]: 38%; inhibition of growth at 150 g/ha [23]: 45%; inhibition of growth at 300 g/ha [24]: 70%; inhibition of growth at 600 g/ha [25]: 73%; Activity [26]: Active
Cc1cc(-c2cccc(C(F)(F)F)c2)c(Oc2ccc(F)cc2)nn1	Active	53	61	70	83	68	35	96	95	96	84	100	98	75	91	Active	Active	Active	Active	Active	Activity [21]: Active; inhibition of growth at 75 g/ha [22]: 64%; inhibition of growth at 150 g/ha [23]: 79%; inhibition of growth at 300 g/ha [24]: 90%; inhibition of growth at 600 g/ha [25]: 100%; Activity [26]: Active
